Assay results from patent publication US20250170266A1 (ZYMEWORKS BC INC., priority 2022, published 2025).
Where two headings read alike, the source gives them in different places.

Assays:
Type in all cases: cell-based
mTLR7 = target: T1, mTLR7 (Mus musculus, UniProt P58681); test: Reporter Gene Assay (RGA), HEK-Blue mTLR7 reporter cells, SEAP readout; settings: overnight incubation, SEAP absorbance 620 nm
T1 construct: host or cells: HEK-Blue mTLR7 reporter cells (HEK293-derived, own knowledge)
T1 sequence (P58681 27-1050): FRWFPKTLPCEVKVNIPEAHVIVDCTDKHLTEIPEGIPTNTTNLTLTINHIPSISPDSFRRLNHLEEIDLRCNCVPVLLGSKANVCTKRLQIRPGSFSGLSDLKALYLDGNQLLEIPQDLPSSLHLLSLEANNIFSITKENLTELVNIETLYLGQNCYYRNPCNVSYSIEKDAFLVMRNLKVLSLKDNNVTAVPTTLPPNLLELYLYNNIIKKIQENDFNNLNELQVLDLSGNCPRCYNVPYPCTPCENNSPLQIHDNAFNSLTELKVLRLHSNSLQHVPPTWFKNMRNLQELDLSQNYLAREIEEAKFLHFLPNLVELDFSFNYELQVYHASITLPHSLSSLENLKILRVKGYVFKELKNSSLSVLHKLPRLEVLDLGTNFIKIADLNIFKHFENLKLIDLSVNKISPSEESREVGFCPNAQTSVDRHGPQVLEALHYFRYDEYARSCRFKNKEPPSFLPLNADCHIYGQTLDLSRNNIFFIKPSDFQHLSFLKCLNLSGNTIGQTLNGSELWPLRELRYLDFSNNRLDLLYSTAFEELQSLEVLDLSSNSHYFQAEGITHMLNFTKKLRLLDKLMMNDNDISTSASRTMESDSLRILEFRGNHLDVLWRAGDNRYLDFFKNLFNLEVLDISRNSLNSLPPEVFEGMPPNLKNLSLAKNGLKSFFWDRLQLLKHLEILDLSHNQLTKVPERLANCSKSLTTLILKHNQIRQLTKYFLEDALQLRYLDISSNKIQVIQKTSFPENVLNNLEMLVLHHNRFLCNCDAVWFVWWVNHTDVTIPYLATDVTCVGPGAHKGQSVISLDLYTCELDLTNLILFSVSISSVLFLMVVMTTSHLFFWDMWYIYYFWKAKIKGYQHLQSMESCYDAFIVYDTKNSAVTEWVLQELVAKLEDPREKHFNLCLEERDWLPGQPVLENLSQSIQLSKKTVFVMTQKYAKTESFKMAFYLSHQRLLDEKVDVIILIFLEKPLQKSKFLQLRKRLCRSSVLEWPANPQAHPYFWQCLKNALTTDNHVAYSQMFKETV
In short: (§1)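 HEK-Blue reporter cells expressing human or mouse TLR7 (1.5×10^4 cells) were treated with an 11-point, 4-fold compound titration from 15 pM in HEK-Blue Detection medium. Incubation was overnight at 37° C with 5% CO2. Secreted embryonic alkaline phosphatase was read as absorbance at 620 nm.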

hTLR7 = target: T2, hTLR7 (Homo sapiens, UniProt Q9NYK1); test: Reporter Gene Assay (RGA), HEK-Blue hTLR7 reporter cells, SEAP readout; settings: overnight incubation, SEAP absorbance 620 nm
T2 construct: host or cells: HEK-Blue hTLR7 reporter cells (HEK293-derived, own knowledge)
T2 sequence (Q9NYK1 27-1049): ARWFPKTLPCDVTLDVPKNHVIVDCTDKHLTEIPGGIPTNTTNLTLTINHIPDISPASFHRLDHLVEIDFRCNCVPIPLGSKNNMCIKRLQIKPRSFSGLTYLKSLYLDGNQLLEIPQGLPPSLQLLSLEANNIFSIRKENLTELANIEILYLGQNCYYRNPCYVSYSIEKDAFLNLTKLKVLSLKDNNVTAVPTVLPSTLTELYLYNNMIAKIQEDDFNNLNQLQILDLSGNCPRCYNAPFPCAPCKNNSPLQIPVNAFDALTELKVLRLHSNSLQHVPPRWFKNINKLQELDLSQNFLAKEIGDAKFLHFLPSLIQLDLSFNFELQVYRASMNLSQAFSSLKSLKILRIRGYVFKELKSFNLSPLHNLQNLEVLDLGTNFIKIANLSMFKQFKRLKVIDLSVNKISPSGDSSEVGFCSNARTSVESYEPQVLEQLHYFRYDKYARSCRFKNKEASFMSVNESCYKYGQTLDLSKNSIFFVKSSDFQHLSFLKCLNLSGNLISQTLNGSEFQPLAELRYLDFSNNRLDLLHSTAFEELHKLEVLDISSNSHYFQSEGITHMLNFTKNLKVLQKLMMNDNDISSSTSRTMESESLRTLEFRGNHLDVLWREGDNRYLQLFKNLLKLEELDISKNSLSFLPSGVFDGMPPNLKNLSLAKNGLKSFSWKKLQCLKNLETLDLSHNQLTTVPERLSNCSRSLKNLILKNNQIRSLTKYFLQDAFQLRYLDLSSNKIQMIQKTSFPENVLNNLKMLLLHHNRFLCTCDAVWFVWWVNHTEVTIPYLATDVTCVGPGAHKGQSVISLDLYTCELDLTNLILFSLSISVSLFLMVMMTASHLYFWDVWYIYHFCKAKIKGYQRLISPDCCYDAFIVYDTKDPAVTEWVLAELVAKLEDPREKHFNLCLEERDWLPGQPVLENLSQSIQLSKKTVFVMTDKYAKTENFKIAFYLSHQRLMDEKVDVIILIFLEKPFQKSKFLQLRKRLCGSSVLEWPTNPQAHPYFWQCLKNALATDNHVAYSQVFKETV
In short: as §1

[1] = test system: Human peripheral blood mononuclear cells (PBMCs); test: Human PBMC Assay, cytokine release (HTRF); settings: 24 hours; for EC50: PBMC
In short: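 Cryopreserved human PBMCs, rested overnight with 10 ng/ml hIL3, then 300,000 cells/well treated 24 h at 37° C with compound (4-fold, 11-point titration from 15 μM) in RPMI+10% FBS. Supernatant hIL6, hTNFα and hIFNα measured by HTRF; growth medium as negative control.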

Mouse splenocytes = test: Mouse Splenocyte Assay, cytokine release (HTRF); settings: 24 hours, mIL6 in supernatant; for EC50: Splenocyte, read-out: Splenocyte IL6 EC50
In short: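 Splenocytes from female balb/c nude mice, thawed, 100,000 per well in RPMI + 10% FBS. Exposed for 24 h at 37 °C to a 4-fold 11-point compound titration from 15 μM; supernatant mIL6 and mTNFα measured by HTRF.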

[2] = hIFNα in supernatant, EC50 values approximated and divided into groups, read-out: PBMC IFNa EC50
[3] = hIL6 in supernatant, read-out: PBMC IL6 EC50

Structure (SMILES) | EC50 (mTLR7) | EC50 (hTLR7) | EC50 (Mouse splenocytes) | Splenocyte IL6 EC50 (nM) (Mouse splenocytes) | EC50 [1, 2] | EC50 [1, 3] | PBMC IL6 EC50 (nM) ([1]; hIL6 in supernatant)
CCCCCNc1nc(N)c2nc(O)n(Cc3ccc(CN)cc3)c2n1 [Compound 183, 6-amino-9-(4-(aminomethyl)benzyl)-2-(pentylamino)-9H-purin-8-ol] | 60.6 nM | 145 nM | 235 nM |  | > 10 nM | 291 nM | 
CCCCCNc1nc(N)c2nc(O)n(Cc3ccc(CN4CCNCC4)cc3)c2n1 [Compound 187, 6-amino-2-(pentylamino)-9-(4-(piperazin-1-ylmethyl)benzyl)-9H-purin-8-ol] | 9 nM | 94 nM | 131 nM |  | 0.1 to 1 nM | 9 nM | 
CCCCCNc1nc(N)c2nc(O)n(Cc3ccc(CNCCCCN)cc3)c2n1 [Compound 190, 6-amino-9-(4-(((4-aminobutyl)amino)methyl)benzyl)-2-(pentylamino)-9H-purin-8-ol] | 80.8 nM | 1420 nM | 106 nM |  | 1 to 10 nM | 131 nM | 
CCOc1nc(N)c2nc(O)n(Cc3ccc(CNCc4cccnc4)cc3OC)c2n1 [Compound 193] | 5.9 nM | 60 nM | 48.2 nM |  | 0.1 to 1 nM | 109 nM | 
CCCCCNc1nc(N)c2nc(O)n(Cc3ccc(CNC4CCNCC4)cc3)c2n1 [Compound 194, 6-amino-2-(pentylamino)-9-(4-((piperidin-4-ylamino)methyl)benzyl)-9H-purin-8-ol] | 35.9 nM | 311 nM | 1390 nM |  | 1 to 10 nM | 1100 nM | 
CCCCCNc1nc(N)c2nc(O)n(Cc3ccc(CNCCN4CCNCC4)cc3)c2n1 [Compound 195, 6-amino-2-(pentylamino)-9-(4-(((2-(piperazin-1-yl)ethyl)amino)methyl)-benzyl)-9H-purin-8-ol] | 127 nM | 1750 nM | 1000 nM |  |  | 791 nM | 

Continued by falling EC50 (mTLR7), values first:

EC50 (mTLR7) | EC50 (hTLR7) | EC50 (Mouse splenocytes) | Splenocyte IL6 EC50 (nM) (Mouse splenocytes) | Structure (SMILES) | EC50 [1, 2] | EC50 [1, 3] | PBMC IL6 EC50 (nM) ([1]; hIL6 in supernatant)
681 nM | 51.4 nM |  | inactive | CCOc1nc(N)c2nc(O)n(Cc3ccc(CN4CCNCC4)nc3)c2n1 [Compound 192, 6-amino-2-ethoxy-9-((6-(piperazin-1-ylmethyl)pyridin-3-yl)methyl)-9H-purin-8-ol] | > 10 nM | 202 nM | 
41 nM | 698 nM | 80.6 nM |  | CCCCCNc1nc(N)c2nc(O)n(Cc3ccc(CNCCN)cc3)c2n1 [Compound 189, 6-amino-9-(4-(((2-aminoethyl)amino)methyl)benzyl)-2-(pentylamino)-9H-purin-8-ol] | 1 to 10 nM | 151 nM | 
26.2 nM | 351 nM | 198 nM |  | CCCCCNc1nc(N)c2nc(O)n(Cc3ccc(CN4CCC(N)CC4)cc3)c2n1 [Compound 188, 6-amino-9-(4-((4-aminopiperidin-1-yl)methyl)benzyl)-2-(pentylamino)-9H-purin-8-ol] | 1 to 10 nM | 19.6 nM | 
20.4 nM | 278 nM | 144 nM |  | CCCCCNc1nc(N)c2nc(O)n(Cc3ccc(CNCC(C)(C)O)cc3)c2n1 [Compound 184, 6-amino-9-(4-(((2-hydroxy-2-methylpropyl)amino)methyl)benzyl)-2-(pentyl-amino)-9H-purin-8-ol] | 0.1 to 1 nM | 29.2 nM | 
11.1 nM | 452 nM |  | inactive | CCCCCNc1nc(N)c2nc(O)n(Cc3ccc(CNC4CC(F)(F)C4)cc3)c2n1 [Compound 186, 6-amino-9-(4-(((3,3-difluorocyclobutyl)amino)methyl)benzyl)-2-(pentyl-amino)-9H-purin-8-ol] | > 10 nM |  | inactive
5.9 nM | 2.1 nM | 2.4 nM |  | CCCC(CO)Oc1nc(N)c2nc(O)n(Cc3ccc(CN)cc3)c2n1 (centres unmarked) [Compound 182, 6-amino-9-(4-(aminomethyl)benzyl)-2-((1-hydroxypentan-2-yl)oxy)-9H-purin-8-ol] | > 10 nM | 5220 nM | 
1 nM | 10 nM | 20.4 nM |  | CCCCCNc1nc(N)c2nc(O)n(Cc3ccc(CN(CC)CC)cc3)c2n1 [Compound 185, 6-amino-9-(4-((diethylamino)methyl)benzyl)-2-(pentylamino)-9H-purin-8-ol] | 1 to 10 nM | 12.6 nM | 
0.5 nM | 29 nM | 45.9 nM |  | CCCCCNc1nc(N)c2nc(O)n(Cc3ccc(CNCc4ccc(CN)cc4)cc3)c2n1 [Compound 191, 6-amino-9-(4-(((4-(aminomethyl)benzyl)amino)methyl)benzyl)-2-(pentyl-amino)-9H-purin-8-ol] | < 0.1 nM |  | 
